Patent US8658801B2, “Pesticides containing a bicyclic bisamide structure” (Syngenta Crop Protection, LLC, priority 2006, dated 2014)

Assays:
[1] = system: Cydia pomonella (Codling Moth); experiment: Example B8: activity against Cydia pomonella (paraffin-coated diet cubes); format: in vivo; details: 336 h, 14 days incubation at 26° C.
Procedure: Activity Against Cydia pomonella (Codling Moth)
Standard Cydia diet cubes (1.5 cm width) are pierced with a tooth-pick and are immersed in liquid paraffin (ca. 80° C.). After the paraffin coat has hardened, an aqueous emulsion containing 400 ppm of active ingredient is applied using a De Vilbis sprayer (25 ml, 1 bar). After the spray coating has dried, the cubes are put into plastic containers which are then populated with two freshly hatched Cydia pomonella (1st instar). The containers are then closed with a plastic cap. After 14 days incubation at 26° C. and 40-60% relative humidity, the survival rate of the caterpillars as well as their growth regulation is determined. In this test, compounds listed in Table P above show good activity. In particular compounds P.10, P.11, P.12, P.18, P.19, P.20, P.29, P.30, P.31, P.32, P.33, P.34, P.35, P.37, P.38, P.39, P.42, and P.43 show an activity of over 80% at a concentration of 400 ppm.

[2] = system: Diabrotica balteata (Corn Root Worm); experiment: Example B4: Diabrotica balteata, larvicide, feeding/residual contact, preventive; format: in vivo; details: 120 h, 5 days incubation, L2 larvae
Procedure: Diabrotica balteata (Corn Root Worm)
(§1) (Larvicide, Feeding/Residual Contact Activity, Preventive)
After drying, the MTP's are infested with larvae (L2)(6-10 per well). After an incubation period of 5 days, samples are checked for larval mortality, antifeedant and growth regulation. In this test, compounds listed in Table P above show good activity. In particular compounds P.1, P.2, P.5, P.6, P.10, P.11, P.12, P.13, P.15, P.16, P.17, P.18, P.19, P.24, P.25, P.27, P.28, P.29, P.30, P.31, P.33, P.34, P.35, P.37, P.38, P.39, P.42, P.43, P.44, P.45, P.46, P.47, P.48, P.49, P.50, P.52, P.53, P.65, P.67, P.68, P.69, P.70, P.71, P.72, P.75, P.78, and P.79 show an activity of over 80% at a concentration of 400 ppm.

[3] = system: Spodoptera littoralis (Egyptian Cotton Leafworm); experiment: Example B1: activity against Spodoptera littoralis, larvicide, feeding/residual contact, preventive (cotton leaf discs); format: in vivo; details: foliar, 72 h, 3 days after treatment, L1 larvae
Excerpt: Activity Against Spodoptera littoralis (Egyptian Cotton Leafworm)
as §1
The samples are checked for mortality, repellent effect, feeding behaviour, and growth regulation 3 days after treatment. In this test, compounds listed in Table P above show good activity. In particular compounds P.1, P.2, P.3, P.4, P.5, P.6, P.7, P.9, P.10, P.11, P.12, P.13, P.15, P.16, P.17, P.18, P.19, P.20, P.21, P.22, P.23, P.24, P.25, P.26, P.27, P.28, P.29, P.30, P.31, P.32, P.33, P.34, P.35, P.36, P.37, P.38, P.39, P.40, P.41, P.42, P.43, P.44, P.45, P.46, P.47, P.48, P.49, P.50, P.51, P.52, P.53, P.54, P.55, P.56, P.57, P.58, P.59, P.60, P.61, P.63, P.64, P.67, P.68 and P.70 show an activity of over 80% at a concentration of 400 ppm.

[4] = system: Myzus persicae (Green Peach Aphid); experiment: Example B5: activity against Myzus persicae, mixed population, feeding/residual contact, preventive (sunflower leaf discs); details: foliar, 144 h, read-out: activity
[5] = system: Frankliniella occidentalis (Western Flower Thrips); experiment: Example B9: activity against Frankliniella occidentalis (bean leaf discs or bean plants); format: in vivo; details: foliar, 6 days (leaf discs) or 14 days (plants) after infestation
Procedure: Activity Against Frankliniella occidentalis (Western Flower Thrips)
Bean leaf discs on agar in petri dishes or bean plants in a spray chamber are treated with diluted test solutions. After drying leaf discs are cut and placed in plastic cups on the surface of an agar layer and infested with mixed population. 6 days (leaf discs) or 14 days (plants) after the infestation, samples are checked for reduction of treated population and compared to the non treated population.

[6] = system: Plutella xylostella (Diamond Back Moth); experiment: Example B3: Plutella xylostella, larvicide, feeding/residual contact, preventive (artificial diet MTP); format: in vivo; details: 120 h, 5 days incubation, L2 larvae
Procedure: Plutella xylostella (Diamond Back Moth)
as §1
24-well microtiter plate (MTP) with artificial diet is treated with test solutions by pipetting. After drying, the MTP's are infested with larvae (L2)(10-15 per well). After an incubation period of 5 days, samples are checked for larval mortality, antifeedant and growth regulation. In this test, compounds listed in Table P above show good activity. In particular compounds P.1, P.2, P.3, P.4, P.5, P.6, P.7, P.9, P.10, P.11, P.12, P.13, P.15, P.16, P.17, P.18, P.19, P.20, P.21, P.22, P.23, P.25, P.26, P.27, P.28, P.29, P.30, P.31, P.32, P.33, P.34, P.35, P.36, P.37, P.38, P.39, P.40, P.41, P.42, P.43, P.44, P.46, P.47, P.48, P.49, P.50, P.51, P.52, P.53, P.54, P.55, P.56, P.57, P.58, P.59, P.60, P.61, P.63, P.64, P.67, P.68, P.69 P.70, P.72, P.74, P.77, P78 and P.79 show an activity of over 80% at a concentration of 400 ppm.

[7] = system: Heliothis virescens (Tobacco Budworm); experiment: Example B2: activity against Heliothis virescens, ovo-larvicide, feeding/contact, curative; format: in vivo; details: 96 h, 4 days incubation, eggs 0-24 h old
Procedure: Activity Against Heliothis virescens (Tobacco Budworm)
(Ovo-Larvicide, Feeding/Contact Activity, Curative)
Eggs (0-24 h old) are placed in 24-well microtiter plate on artificial diet and treated with test solutions by pipetting. After an incubation period of 4 days, samples are checked for egg mortality, larval mortality, and growth regulation.

[8] = system: Thrips tabaci (Onion Thrips); experiment: Example B7: activity against Thrips tabaci, mixed population, feeding/residual contact, preventive; details: 144 h, read-out: activity
[9] = system: Myzus persicae (Green Peach Aphid); experiment: Example B6: activity against Myzus persicae, mixed population, systemic/feeding, curative (pea seedling roots); details: 144 h, read-out: activity
[10] = system: Aphis craccivora (Pea Aphid); experiment: Example B11: activity against Aphis craccivora, mixed population, systemic/feeding; format: in vivo; details: 144 h, 6 days, roots in test solution (systemic)
Excerpt: Activity Against Aphis craccivora (Pea Aphid)
(Mixed Population, Systemic/Feeding)
6 days later, samples are checked for mortality.

Measured: pest or weed control at 400 ppm

O=C(NC1(C2CC2)CC1)c1c(NC(=O)c2cc(C(F)F)nn2-c2ncccc2Cl)c(Cl)cc2cn[nH]c12 [P.38]
not listed: [8] | [9] | [10]
> 80%: all other assays above

O=C(NC1(C2CC2)CC1)c1c(NC(=O)c2cc(Cl)nn2-c2ncccc2Cl)c(Cl)cc2cn[nH]c12 [P.45, 5-chloro-6-{[5-chloro-2-(3-chloro-pyridin-2-yl)-2H-pyrazole-3-carbonyl]-amino}-1H-indazole-7-carboxylic acid bicyclopropyl-1-ylamide]
not listed: [1] | [6] | [7]
> 80%: all other assays above

COc1cc(C(=O)Nc2c(Br)cc3cn[nH]c3c2C(=O)NC(C)C)n(-c2ncccc2Cl)n1 [P.35]
not listed: [10]
> 80%: all other assays above

O=C(NCC1CC1)c1c(NC(=O)c2cc(C(F)(F)F)nn2-c2ncccc2Cl)c(Cl)cc2cn[nH]c12 [P.11]
not listed: [8] | [9] | [10]
> 80%: all other assays above

O=C(NC1CC12CC2)c1c(NC(=O)c2cc(C(F)(F)F)nn2-c2ncccc2Cl)c(Cl)cc2cn[nH]c12 (stereo not shown) [P.31]
> 80%: [1] | [2] | [3] | [4] | [6] | [7]

Cc1ccc2c(C(=O)NC(C)C)c(NC(=O)c3cc(C(F)(F)F)nn3-c3ncccc3Cl)c(C)cc2n1 [P.20]
> 80%: [1] | [3] | [6] | [7]

CC1(NC(=O)c2c(NC(=O)c3cc(C(F)(F)F)nn3-c3ncccc3Cl)c(Cl)cc3cn[nH]c23)CSC1 [P.32]
not listed: [2] | [5] | [10]
> 80%: all other assays above

Cc1cc2cn[nH]c2c(C(=O)NC(C)C)c1NC(=O)c1cc(OCC(F)(F)F)nn1-c1ncccc1Cl [P.52, 6-{[2-(3-chloro-pyridin-2-yl)-5-(2,2,2-trifluoro-ethoxy)-2H-pyrazole-3-carbonyl]-amino}-5-methyl-1H-indazole-7-carboxylic acid isopropylamide]
not listed: [1]
> 80%: all other assays above

CCNC(=O)c1c(NC(=O)c2cc(Cl)nn2-c2ncccc2Cl)c(Br)cc2cn[nH]c12 [P.37]
not listed: [5] | [10]
> 80%: all other assays above

CNC(=O)c1c(NC(=O)c2cc(C(F)(F)F)nn2-c2ncccc2Cl)c(Cl)cc2cn[nH]c12 [P.29]
not listed: [5] | [10]
> 80%: all other assays above

CSCC(C)(C)NC(=O)c1c(NC(=O)c2cc(C(F)(F)F)nn2-c2ncccc2Cl)c(Cl)cc2cn[nH]c12 [P.13]
not listed: [1]
> 80%: all other assays above

O=C(NCC1CC1)c1c(NC(=O)c2cc(C(F)(F)F)nn2-c2ncccc2Cl)c(Br)cc2cn[nH]c12 [P.19]
not listed: [8] | [10]
> 80%: all other assays above

O=C(NC1(C2CC2)CC1)c1c(NC(=O)c2cc(C(F)(F)F)nn2-c2ncccc2Cl)c(Br)cc2cn[nH]c12 [P.18]
not listed: [9] | [10]
> 80%: all other assays above
